From patent US11767322B2 (BRISTOL-MYERS SQUIBB COMPANY, priority 2020, dated 2023)
Like-named read-outs stand apart in the source and are kept apart here.

Assays:
[1] = biological target: T1, His-GST-TVMV-hRIPK1(1-324) (Homo sapiens, UniProt Q13546); test: biochemical; type: binding
T1 construct: The coding region of human RIPK1(1-324) flanked by NdeI site at 5′ end; made in house; host or cells: Spodoptera frugiperda Sf9 insect cells (baculovirus, Bac-to-Bac)
T1 sequence (Q13546 1-324): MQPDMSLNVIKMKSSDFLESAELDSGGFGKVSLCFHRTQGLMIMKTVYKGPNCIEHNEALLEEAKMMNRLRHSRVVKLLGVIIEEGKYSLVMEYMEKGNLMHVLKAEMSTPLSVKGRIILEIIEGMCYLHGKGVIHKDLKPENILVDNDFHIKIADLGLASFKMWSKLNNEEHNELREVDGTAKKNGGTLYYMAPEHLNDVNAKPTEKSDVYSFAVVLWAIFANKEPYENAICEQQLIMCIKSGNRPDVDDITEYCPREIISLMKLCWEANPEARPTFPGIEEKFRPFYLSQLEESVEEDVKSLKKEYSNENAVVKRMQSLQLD

[2] = test system: MLKL phosphorylation in HT29-L23 human colorectal adenocarcinoma cells; test: MLKL phosphorylation high-content assay; type: cell-based
[3] = biological target: GST-tagged PIK3Cδ in complex with PIK3R1 (Homo sapiens, UniProt O00329); test: PI3Kδ HTRF binding assay; details: read-out: PIK3CD IC50
Sequence of GST-tagged PIK3Cδ in complex with PIK3R1 (O00329 whole entry): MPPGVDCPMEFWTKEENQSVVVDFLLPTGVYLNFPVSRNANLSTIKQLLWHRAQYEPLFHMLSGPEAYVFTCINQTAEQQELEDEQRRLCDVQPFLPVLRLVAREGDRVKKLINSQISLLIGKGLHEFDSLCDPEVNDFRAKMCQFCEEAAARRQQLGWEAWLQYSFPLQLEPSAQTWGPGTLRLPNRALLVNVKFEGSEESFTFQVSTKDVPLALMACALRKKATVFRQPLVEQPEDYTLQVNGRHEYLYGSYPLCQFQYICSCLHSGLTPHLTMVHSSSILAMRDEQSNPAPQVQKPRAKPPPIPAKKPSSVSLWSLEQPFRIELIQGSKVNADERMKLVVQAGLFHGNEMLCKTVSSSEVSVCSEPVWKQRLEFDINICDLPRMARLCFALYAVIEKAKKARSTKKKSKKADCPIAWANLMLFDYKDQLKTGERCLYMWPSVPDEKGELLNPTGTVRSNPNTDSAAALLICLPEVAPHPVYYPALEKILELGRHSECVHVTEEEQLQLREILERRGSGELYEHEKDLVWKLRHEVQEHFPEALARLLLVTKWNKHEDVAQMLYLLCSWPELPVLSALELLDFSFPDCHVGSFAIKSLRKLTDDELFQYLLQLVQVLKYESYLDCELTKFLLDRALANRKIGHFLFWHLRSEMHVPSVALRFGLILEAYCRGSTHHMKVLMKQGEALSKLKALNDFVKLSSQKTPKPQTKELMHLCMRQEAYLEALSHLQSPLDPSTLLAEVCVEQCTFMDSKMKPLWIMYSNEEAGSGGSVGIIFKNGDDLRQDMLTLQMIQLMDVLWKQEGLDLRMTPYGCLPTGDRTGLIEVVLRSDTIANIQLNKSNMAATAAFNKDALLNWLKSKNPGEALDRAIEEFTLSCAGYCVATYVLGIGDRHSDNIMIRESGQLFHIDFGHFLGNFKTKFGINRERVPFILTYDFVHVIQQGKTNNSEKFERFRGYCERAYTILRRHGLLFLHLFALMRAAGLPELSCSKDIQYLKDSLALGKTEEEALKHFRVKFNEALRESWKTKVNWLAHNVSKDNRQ
Sequence of GST-tagged PIK3Cδ in complex with PIK3R1 (P27986 whole entry partner): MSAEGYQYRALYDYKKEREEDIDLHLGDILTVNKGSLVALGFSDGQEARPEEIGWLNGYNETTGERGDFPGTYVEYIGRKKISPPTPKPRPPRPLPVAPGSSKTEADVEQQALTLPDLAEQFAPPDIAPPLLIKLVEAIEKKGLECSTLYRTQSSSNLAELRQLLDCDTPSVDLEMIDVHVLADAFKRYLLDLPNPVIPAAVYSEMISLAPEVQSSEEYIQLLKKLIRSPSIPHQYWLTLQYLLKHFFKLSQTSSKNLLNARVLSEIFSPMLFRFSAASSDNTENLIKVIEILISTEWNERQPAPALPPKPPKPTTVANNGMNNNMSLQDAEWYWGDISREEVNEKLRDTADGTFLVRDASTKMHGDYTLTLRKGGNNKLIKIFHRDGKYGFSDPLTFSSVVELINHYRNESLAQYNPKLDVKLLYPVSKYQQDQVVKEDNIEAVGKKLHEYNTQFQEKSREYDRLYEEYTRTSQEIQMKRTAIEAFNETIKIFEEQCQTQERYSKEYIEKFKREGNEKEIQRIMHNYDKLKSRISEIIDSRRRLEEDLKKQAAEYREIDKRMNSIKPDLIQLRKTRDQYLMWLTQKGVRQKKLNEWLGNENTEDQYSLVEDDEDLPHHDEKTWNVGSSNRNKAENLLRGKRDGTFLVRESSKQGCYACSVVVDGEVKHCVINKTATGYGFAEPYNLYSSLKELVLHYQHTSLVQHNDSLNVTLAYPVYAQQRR

[4] = HTRF probe displacement, 1 h at rt, read-out: RIPK1 IC50
[5] = Table 22, compounds of the present invention, read-out: RPIK1 IC50
[6] = Homo sapiens, 6 h, read-out: pMLKL IC50, HT29-L23 cells, necroptosis induced with TNFα, SMAC mimetic and Z-VAD, 6 h, maximal inhibition defined by Nec1s
[7] = Homo sapiens, read-out: pMLKL IC50, Table 22, compounds of the present invention
[8] = HTRF probe displacement, 1 h at rt
[9] = read-out: pMLKL IC50, HT29-L23 cells, necroptosis induced with TNFα, SMAC mimetic and Z-VAD, 6 h, maximal inhibition defined by Nec1s

With `COc1ccc(-c2ccn3nc(N)nc3c2)c(F)c1C(=O)NCC[C@H](O)c1ccc(Cl)cc1` [Example 147, (S)-3-(2-amino-[1,2,4]triazolo[1,5-a]pyridin-7-yl)-N-(3-(4-chlorophenyl)-3-hydroxypropyl)-2-fluoro-6-methoxybenzamide] the IC50 [1, 4] was 9.4 nM, the IC50 [1, 5] was 9.4 nM and the IC50 [2, 6] was 21 nM. It also gave an IC50 [2, 7] of 21 nM and an IC50 [3] of 13 µM.

With `Nc1nc2cc(-c3ccc(Cl)c(C(=O)NCC(F)(F)C(=O)c4ccc(F)cc4)c3F)ccn2n1` [Example 280, 3-(2-amino-[1,2,4]triazolo[1,5-a]pyridin-7-yl)-6-chloro-N-(2,2-difluoro-3-(4-fluorophenyl)-3-oxopropyl)-2-fluorobenzamide] the IC50 [1, 4] was 15 nM, the IC50 [2, 6] was 1.4 nM and the IC50 [3, 8] was 11 µM.

For `Cc1ccc(-c2ccn3nc(N)nc3c2)c(F)c1C(=O)NCCC(c1ccccc1)C(F)(F)F` (racemic) [Example 11, 3-(2-amino-[1,2,4]triazolo[1,5-a]pyridin-7-yl)-2-fluoro-6-methyl-N-(4,4,4-trifluoro-3-phenylbutyl)benzamide], the IC50 [1, 4] was 1.2 nM, the IC50 [2, 6] was 5.9 nM and the IC50 [3, 8] was over 15 µM.

`Nc1nc2cc(-c3ccc(Cl)c(C(=O)NCC(F)(F)C(O)c4ccc(Cl)c(Cl)c4)c3F)ccn2n1` (single isomer, unassigned) [Example 264, 3-{2-amino-[1,2,4]triazolo[1,5-a]pyridin-7-yl}-6-chloro-N-[3-(3,4-dichlorophenyl)-2,2-difluoro-3-hydroxypropyl]-2-fluorobenzamide] was tested, and the IC50 [1, 4] was 6.2 nM, the IC50 [2, 9] was 1 nM and the IC50 [3, 8] was over 15 µM.

`Nc1nc2cc(-c3ccc(Cl)c(C(=O)NCC(F)C(O)c4ccc(F)cc4)c3F)ccn2n1` (stereo not drawn) [Example 130, 3-(2-amino-[1,2,4]triazolo[1,5-a]pyridin-7-yl)-6-chloro-2-fluoro-N-(2-fluoro-3-(4-fluorophenyl)-3-hydroxypropyl)benzamide enantiomeric mixture 1] was tested, and the IC50 [1, 4] was 7.4 nM, the IC50 [2, 6] was 2.9 nM and the IC50 [3, 8] was 4.9 µM.

Work on `Cc1ccc(-c2ccn3nc(N)nc3c2)c(F)c1C(=O)NCCC(c1ccccc1)C(F)(F)F` (single isomer, unassigned) [Example 12, 3-(2-amino-[1,2,4]triazolo[1,5-a]pyridin-7-yl)-2-fluoro-6-methyl-N-(4,4,4-trifluoro-3-phenylbutyl)benzamide] yielded an IC50 [1, 4] of 3 nM, an IC50 [2, 9] of 9.2 nM and an IC50 [3, 8] of over 15 µM.

`Cc1c(C(=O)NCC[C@H](O)c2ccc(Cl)cc2)cc(-c2ccn3nc(N)nc3c2)c(F)c1F` [Example 99, (S)-5-(2-amino-[1,2,4]triazolo[1,5-a]pyridin-7-yl)-N-(3-(4-chlorophenyl)-3-hydroxypropyl)-3,4-difluoro-2-methylbenzamide] gave an IC50 [1, 4] of 5.5 nM, an IC50 [2, 6] of 2.9 nM and an IC50 [3, 8] of over 15 µM.

For `Cc1ccc(-c2ccn3nc(N)nc3c2F)c(F)c1C(=O)NCC[C@H](O)c1ccc(Cl)cc1` [Example 132, (S)-3-(2-amino-8-fluoro-[1,2,4]triazolo[1,5-a]pyridin-7-yl)-N-(3-(4-chlorophenyl)-3-hydroxypropyl)-2-fluoro-6-methylbenzamide], the IC50 [1, 4] was 8.4 nM, the IC50 [2, 6] was 1.1 nM and the IC50 [3, 8] was over 15 µM.

Work on `Cc1ccc(-c2ccn3nc(N)nc3c2)c(F)c1C(=O)NCCCC1CCCCC1` [Example 52, 3-(2-amino-[1,2,4]triazolo[1,5-a]pyridin-7-yl)-N-(3-cyclohexylpropyl)-2-fluoro-6-methylbenzamide] yielded an IC50 [1, 4] of 0.3 nM, an IC50 [2, 6] of 1.1 nM and an IC50 [3, 8] of over 15 µM.

Work on `[2H]C([2H])(CC([2H])(O)c1ccc(Cl)cc1)NC(=O)c1c(C)ccc(-c2ccn3nc(N)nc3c2)c1F` (single isomer, unassigned) [Example 54, 3-(2-amino-[1,2,4]triazolo[1,5-a]pyridin-7-yl)-N-(3-(4-chlorophenyl)-3-hydroxypropyl-1,1,3-d3)-2-fluoro-6-methylbenzamide] yielded an IC50 [1, 4] of 2.7 nM, an IC50 [2, 9] of 1 nM and an IC50 [3, 8] of over 15 µM.

In the case of `Cc1ccc(-c2ccn3nc(N)nc3c2)c(F)c1C(=O)NCCC(O)c1ccc(C(F)(F)F)cc1` (single isomer, unassigned) [Example 56, 3-(2-amino-[1,2,4]triazolo[1,5-a]pyridin-7-yl)-2-fluoro-N-(3-hydroxy-3-(4-(trifluoromethyl)phenyl)propyl)-6-methylbenzamide], the IC50 [1, 4] is reported as 4.5 nM, the IC50 [2, 9] is reported as 0.4 nM and the IC50 [3, 8] is reported as over 15 µM.

Compound `Cc1ccc(-c2ccn3nc(N)nc3c2)c(F)c1C(=O)NCCC(O)c1ccc(F)c(F)c1` (single isomer, unassigned) [Example 67, 3-(2-amino-[1,2,4]triazolo[1,5-a]pyridin-7-yl)-N-(3-(3,4-difluorophenyl)-3-hydroxypropyl)-2-fluoro-6-methylbenzamide] has an IC50 [1, 4] of 4.4 nM, an IC50 [1, 5] of 4.4 nM and an IC50 [2, 9] of 1.3 nM. For the same compound, the IC50 ([2]; read-out: pMLKL IC50, Table 22, compounds of the present invention) was 1.3 nM and the IC50 [3, 8] was over 15 µM.

`Nc1nc2cc(-c3ccc(Cl)c(C(=O)NCC[C@H](O)c4ccc(Cl)cc4)c3F)ccn2n1` [Example 153, (S)-3-(2-amino-[1,2,4]triazolo[1,5-a]pyridin-7-yl)-6-chloro-N-(3-(4-chlorophenyl)-3-hydroxypropyl)-2-fluorobenzamide] showed an IC50 [1, 4] of 4.1 nM, an IC50 [2, 6] of 8.3 nM and an IC50 [3, 8] of over 15 µM.

`Cc1ccc(-c2ccn3nc(N)nc3c2)c(F)c1C(=O)NCCC(O)c1ccc(F)cc1` (single isomer, unassigned) [Example 50, 3-(2-amino-[1,2,4]triazolo[1,5-a]pyridin-7-yl)-2-fluoro-N-(3-(4-fluorophenyl)-3-hydroxypropyl)-6-methylbenzamide] was tested, and the IC50 [1, 4] was 0.3 nM, the IC50 [2, 6] was 1.9 nM and the IC50 [3, 8] was over 15 µM.

Work on `Cc1ccc(-c2ccn3nc(N)nc3c2)c(F)c1C(=O)NCCC(O)c1ccc(Cl)cc1F` (single isomer, unassigned) [Example 68, 3-(2-amino-[1,2,4]triazolo[1,5-a]pyridin-7-yl)-N-(3-(4-chloro-2-fluorophenyl)-3-hydroxypropyl)-2-fluoro-6-methylbenzamide] yielded an IC50 [1, 4] of 3.6 nM, an IC50 [2, 6] of 0.6 nM and an IC50 [3, 8] of over 15 µM.

`Nc1nc2cc(-c3ccc(Cl)c(C(=O)NCC(F)(F)C(O)c4ccc(Cl)c(F)c4)c3F)ccn2n1` (stereo not drawn) [Example 190, 3-(2-amino-[1,2,4]triazolo[1,5-a]pyridin-7-yl)-6-chloro-N-(3-(4-chloro-3-fluorophenyl)-2,2-difluoro-3-hydroxypropyl)-2-fluorobenzamide] was tested, and the IC50 [1, 4] was 3.3 nM, the IC50 [2, 6] was 0.7 nM and the IC50 [3, 8] was over 15 µM.

Work on `Cc1ccc(-c2ccn3nc(N)nc3c2)c(F)c1C(=O)NCC(F)(F)C(=O)c1ccc(F)cc1` [Example 281, 3-(2-amino-[1,2,4]triazolo[1,5-a]pyridin-7-yl)-N-(2,2-difluoro-3-(4-fluorophenyl)-3-oxopropyl)-2-fluoro-6-methylbenzamide] yielded an IC50 [1, 4] of 7.2 nM, an IC50 [2, 6] of 1.3 nM and an IC50 [3, 8] of over 15 µM.

`Cc1cc(F)c(-c2ccn3nc(N)nc3c2)cc1C(=O)NCCC(O)c1ccc(Cl)cn1` (single isomer, unassigned) [Example 6, 5-(2-amino-[1,2,4]triazolo[1,5-a]pyridin-7-yl)-N-(3-(5-chloropyridin-2-yl)-3-hydroxypropyl)-4-fluoro-2-methylbenzamide] was tested, and the IC50 [1, 4] was 5.8 nM, the IC50 [2, 9] was 2.3 nM and the IC50 [3, 8] was over 15 µM.

In the case of `Nc1nc2cc(-c3ccc(Cl)c(C(=O)NC[C@H](F)[C@H](O)c4ccc(F)cc4)c3F)ccn2n1` (single isomer, unassigned) [Example 299], the IC50 [1, 4] is reported as 16 nM, the IC50 [2, 6] is reported as 37 nM and the IC50 [3, 8] is reported as 10 µM.

`Cc1ccc(-c2ccn3nc(N)nc3c2)c(F)c1C(=O)NC(C)CC(O)c1ccc(F)cc1` (stereo not drawn) [Example 35, 3-(2-amino-[1,2,4]triazolo[1,5-a]pyridin-7-yl)-2-fluoro-N-(4-(4-fluorophenyl)-4-hydroxybutan-2-yl)-6-methylbenzamide] was tested, and the IC50 [1, 4] was 2 nM, the IC50 [2, 6] was 0.9 nM and the IC50 [3, 8] was 3.9 µM.

`Nc1nc2cc(-c3ccc(Cl)c(C(=O)NCCC4(c5ccc(F)cc5)CC4)c3F)ccn2n1` [Example 84, 3-(2-amino-[1,2,4]triazolo[1,5-a]pyridin-7-yl)-6-chloro-2-fluoro-N-(2-(1-(4-fluorophenyl)cyclopropyl)ethyl)benzamide] showed an IC50 [1, 4] of 1.6 nM, an IC50 [2, 6] of 1.1 nM and an IC50 [3, 8] of over 15 µM.

For `CCc1ccc(-c2ccn3nc(N)nc3c2)cc1C(=O)NCC[C@H](O)c1ccc(Cl)cc1` [Example 150, (S)-5-(2-amino-[1,2,4]triazolo[1,5-a]pyridin-7-yl)-N-(3-(4-chlorophenyl)-3-hydroxypropyl)-2-ethylbenzamide], the IC50 [1, 4] was 1.8 nM, the IC50 [2, 6] was 5.7 nM and the IC50 [3, 8] was over 15 µM.

Compound `Cc1ccc(-c2ccn3nc(N)nc3c2)c(F)c1C(=O)NCC[C@@H](O)c1ccc(Cl)cc1` [Example 152, (R)-3-(2-amino-[1,2,4]triazolo[1,5-a]pyridin-7-yl)-N-(3-(4-chlorophenyl)-3-hydroxypropyl)-2-fluoro-6-methylbenzamide] has an IC50 [1, 4] of 2.3 nM, an IC50 [1, 5] of 2.3 nM and an IC50 [2, 6] of 0.5 nM. For the same compound, the IC50 [2, 7] was 0.5 nM and the IC50 [3, 8] was over 15 µM.
